Measured values taken from patent EP0019589A1, “Tripeptide derivatives and their use in a process for determining enzymes” (Pentapharm A.G., priority 1979, dated 1980).
Non-standard residues stand in square brackets, D forms with d. Residues, ends and D or L forms follow the SMILES beside them. *: point of attachment. Cha = N[C@@H](CC1CCCCC1)C(=O)O; dCha = N[C@H](CC1CCCCC1)C(=O)O; dChg = N[C@@H](C(=O)O)C1CCCCC1; pNA = O=[N+]([O-])c1ccc(N*)cc1; Chg = N[C@H](C(=O)O)C1CCCCC1; Phg = N[C@H](C(=O)O)c1ccccc1; dPip = O=C(O)[C@H]1CCCCN1

Columns and labels:
Format in all cases: biochemical
[1] = target: T1, Urinkallikrein (Homo sapiens, UniProt P06870); test: Cleavage of chromogenic substrate by urinary kallikrein in human urine; settings: 1 ml human urine (pooled morning urine of healthy persons), per min; Substratkonzentration 2 x 10^-4 molar
T1 construct: 1 ml Urin und 1 ml TRIS-Imidazol-Puffer mit pH 7,9; from tissue; host or cells: human urine
Method: 1. Bestimmung von Urinkallikrein.
1 ml Urin und 1 ml TRIS-Imidazol-Puffer mit pH 7,9 und Ionenstärke 1,0 werden 5 Min. bei 37°C inkubiert undcänn zentrifugiert, um Sedimente zu entfernen.
In einer-Plastikküvette werden 1,4 ml dest. H20 von 37°C und 0,4 ml des Zentrifugats gut gemischt. Zu dieser Mischung gibt man 0,2 ml einer 2 x 10^-3 molaren wässrigen Substratlösung und durchmischt die Komponenten schnell. Dieses Gemisch wird genau 15 Min. bei 37°C inkubiert. Dann wird dem Reaktionsgemisch 0,2 ml Eisessig zugemischt, um die Enzymreaktion zu unterbrechen. Zur Farbmessung verwendet man eine Vergleichsprobe (Blindprobe), die aus den gleichen Komponenten zusammengesetzt ist, wobei jedoch der Eisessig vor Zugabe des Substrates zugesetzt wird, um die Enzymreaktion zu verhindern. Dann wird bei 405 nm photometrisch oder spektrophotometrisch die Menge der gebildeten farbigen Verbindung RNH 2 aus der Differenz zwischen der Blindprobe und der zu bestimmenden Probe ermittelt. Aus dem ermittelten Wert wird die Urinkallikreinaktivität im Urin nach der folgenden Formel berechnet: [formula] • Δ OD = Zunahme der optischen Dichte bei 405 nm während 15 Min. • V = Totalvolumen des Bestimmungsansatzes = 2,2 ml • 1000 = Umrechnungsfaktor zur Umwandlung von U in mU • F = Verdünnungsfaktor des Urins (2) • v = Volumen der Probe = 0,4 ml • ε = Extinktionskoeffizient dividiert durch 1000 = 10,4
Bei der oben beschriebenen Bestimmungsmethode misst man somit die Summe der Aktivitäten von Urinkallikrein und Urokinase. Um die genaue Urinkallikreinaktivität zu erhalten, muss man die Urokinaseaktivität abziehen, welche dadurch bestimmt werden kann, dass man in einem Vergleichsversuch durch Zugabe von 0,075 Einheiten Trypsininhibitor (Trypsininhibitor aus Rinderlunge) pro ml Puffer die Urinkallikreinaktivität vollständig hemmt und nur die Urokinaseaktivität misst.
(§1) Bei der Messung des durch die enzymatische Hydrolyse des Substrates gebildeten Spaltproduktes RrNH2 geht man von der Voraussetzung aus, dass das Spaltprodukt ein UV-Spektrum besitzt, das von demjenigen des Substrates verschieden und in Richtung höherer Wellenlängen verschoben ist. Die Absorption des Substrates bei 405 nm ist praktisch Null. p-Nitroanilin als Spaltprodukt weist ein Absorptionsmaximum bei 380 nm und einen molaren Extinktionskoeffizienten von 13'200 auf. Bei 405 nm ist der Extinktionskoeffizient nur wenig niedriger, d.h. […] Der Grad der enzymatischen Hydrolyse des Substrates, welcher der Menge des abgespaltenen p-Nitroanilins proportional ist, lässt sich durch spektrophotometrische Messung bei 405 nm bestimmen. Auch bei Anwesenheit eines Ueberschusses an Substrat wird die Messung bei 405 nm nicht gestört.
(§2) Bei den Substraten, die als chromogene Gruppe eine 2-Naphthylamino-, 4-Methoxy-2-naphthylamino-, 4-Methyl-cumaryl-(7)-amino- oder 1,3-Di(methoxycarbonyl)-phenyl-(5)-amino-Gruppe enthalten, wird die Menge des Spaltproduktes R-NH2 durch Fluoreszenzspektrophotometrie gemessen. In einem aus Enzym, Puffer und Substrat bestehenden Testsystem misst man kontinuierlich das energieärmere emittierte Licht bei 400-470 nm, nachdem man das gebildete fluoreszierende Spaltprodukt mit energiereicherem Licht erregt hat. Die pro Zeiteinheit gebildete Menge Spaltprodukt ist ein Mass für die vorhandene Enzymaktivität. 1 µMol Spaltprodukt pro Minute entspricht definitionsgemäss 1 Enzym-Einheit, bezogen auf ein gegebenes Substrat.

[2] = target: T2, Submandibularis-Kallikrein (Homo sapiens, UniProt P06870); test: Cleavage of chromogenic substrate by submandibular (glandular) kallikrein in human sputum; settings: 1 ml human sputum, per min; Substratkonzentration 2 x 10^-4 molar
T2 construct: Man mischt 0,5 ml Sputum mit 2 ml TRIS-Imidazol-Puffer; from tissue; host or cells: human sputum
Method: 2. Bestimmung des Glandulärkallikreins im Sputum: • Man mischt 0,5 ml Sputum mit 2 ml TRIS-Imidazol-Puffer (Ionenstärke 1,0) und präinkubiert die Mischung 5 Min. bei 37°C. Das Inkubat wird zentrifugiert. In eine Testküvette wird 1,5 ml dest. H2O von 37°C vorgelegt und mit 0,25 ml des Zentrifugats versetzt. Die Komponenten werden gut gemischt. Dann wird 0,2 ml 2 x 10-^3 molare wässrige Substratlösung zugesetzt und gemischt. Dann wird bei 405 nm die Extinktions- änderung kontinuierlich mittels eines Schreibers während 5-10 Min. verfolgt. Aus dem ermittelten Δ OD pro Min. wird mittels der nachstehenden Formel die Kallikreinaktivität pro ml Sputum in mU errechnet: [formula] • F = 5 • V = 1,95 • v = 0,25 • 1 U (Einheit) = Enzymmenge, die während 1 Min. 1 µMol Substrat unter optimalen oder sonst festgelegten Bedingungen in Bezug auf pH, Ionenstärke, Temperatur und Substratkonzentration zu spalten vermag
as §1, with “gestört. […]” for “gestört.”

[3] = target: T3, Humanplasmin (Homo sapiens, UniProt P00747); test: Cleavage of chromogenic substrate by human plasmin; settings: 1 CU-Einheit human plasmin, per min; Substratkonzentration 2 x 10^-4 molar
T3 construct: da bei der Aktivierung aus 1 Molekül Plasminogen 1 Molekül Plasmin entsteht
Method: 3. Bestimmung von Plasmin:
Man mischt 1,7 ml TRIS-Imidazol-Puffer (pH 7,5, Ionenstärke 0,2) bei 37°C mit 0,1 ml einer Lösung von Plasmin in 25%igem Glycerin und inkubiert die Mischung während 1 Min. bei 37°C. Dann gibt man der Mischung 0,2 ml einer wässrigen 2 x 10^-3 molaren Substxatlösung von 37°C zu und durchmischt das Ganze schnell. Man ermittelt dann kontinuierlich die pro Zeiteinheit aus dem Substrat freigesetzte Menge des Spaltproduktes R-NH2. Aus dem pro Min. ermittelten Wert berechnet man dann die Plasminaktivität pro ml Probe in mU nach der folgenden Formel: [formula] • ΔE = pro Min. freigesetzte Menge des Spaltproduktes • V = Totalvolumen des Testansatzes • v = Volumen der Probe • = Extinktionskoeffizient dividiert durch 1000
as §1, §2

[4] = target: T4, Humanthrombin (Homo sapiens, UniProt P00734); test: Cleavage of chromogenic substrate by human NIH thrombin; settings: 1 NIH-Einheit human thrombin, per min; Substratkonzentration 2 x 10^-4 molar
T4 construct: Humanplasmin und hu-manem NIH-Thrombin
Excerpt: as §1, §2

T1 sequence (P06870 25-262): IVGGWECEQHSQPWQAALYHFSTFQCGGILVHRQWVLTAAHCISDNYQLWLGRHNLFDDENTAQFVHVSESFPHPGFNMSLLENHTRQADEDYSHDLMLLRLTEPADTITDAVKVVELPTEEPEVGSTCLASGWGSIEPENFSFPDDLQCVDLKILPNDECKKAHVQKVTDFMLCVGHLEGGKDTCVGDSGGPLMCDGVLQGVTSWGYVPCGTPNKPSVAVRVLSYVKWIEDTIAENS
T2 sequence (P06870 25-262): as above
T3 sequence (P00747 581-810 limits assumed): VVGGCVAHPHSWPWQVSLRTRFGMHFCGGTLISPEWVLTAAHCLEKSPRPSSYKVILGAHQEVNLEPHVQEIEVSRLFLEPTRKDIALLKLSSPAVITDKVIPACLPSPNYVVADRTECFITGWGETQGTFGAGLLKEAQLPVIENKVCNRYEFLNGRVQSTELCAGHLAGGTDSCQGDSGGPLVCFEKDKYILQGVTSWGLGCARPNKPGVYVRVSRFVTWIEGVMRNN
T3 sequence (P00747 97-580 partner limits assumed): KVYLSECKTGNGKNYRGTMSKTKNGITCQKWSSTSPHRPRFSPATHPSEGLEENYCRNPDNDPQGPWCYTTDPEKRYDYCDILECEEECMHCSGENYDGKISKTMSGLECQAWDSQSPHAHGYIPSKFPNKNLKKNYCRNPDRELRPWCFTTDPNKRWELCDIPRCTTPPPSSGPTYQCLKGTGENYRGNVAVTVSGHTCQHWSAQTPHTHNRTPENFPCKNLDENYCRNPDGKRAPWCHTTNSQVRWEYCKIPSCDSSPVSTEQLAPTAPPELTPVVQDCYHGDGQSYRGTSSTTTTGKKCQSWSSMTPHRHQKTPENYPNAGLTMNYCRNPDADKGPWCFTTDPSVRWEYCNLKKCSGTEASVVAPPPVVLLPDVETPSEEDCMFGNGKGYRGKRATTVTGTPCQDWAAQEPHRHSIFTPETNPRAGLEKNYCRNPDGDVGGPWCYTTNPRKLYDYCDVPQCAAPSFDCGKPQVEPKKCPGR

SMILES	Menge des durch 1 ml Humanurin pro Min. freigesetzten Spaltproduktes R-NH2 in Nanomol (Urinkallikrein) [1]	Menge des durch 1 ml Humansputum pro Min. freigesetzten Spaltproduktes R-NH2 in Nanomol (Submandibularis-Kallikrein) [2]	Menge des durch 1 CU-Einheit Humanplasmin pro Min. freigesetzten Spaltproduktes R-NH2 in Nanomol (Humanplasmin) [3] [Nanomol]	Menge des durch 1 NIH-Einheit Thrombin pro Min. freigesetzten Spaltproduktes R-NH2 in Nanomol (Humanthrombin) [4]
N=C(N)NCCC[C@H](NC(=O)[C@H](Cc1ccccc1)NC(=O)[C@H](N)C1CCCCC1)C(=O)Nc1ccc([N+](=O)[O-])cc1 [Beispiel 16, 2HBr.H-D-CHG-Phe-Arg-pNA] (H-[dChg]-Phe-Arg-pNA)	3,31 Nanomol	32,2 Nanomol	1200	17,1 Nanomol
N=C(N)NCCC[C@H](NC(=O)[C@@H](NC(=O)[C@H]1CCCCN1)C1CCCCC1)C(=O)Nc1ccc([N+](=O)[O-])cc1 [Beispiel 60, 2HBr.H-D-Pip-CHG-Arg-pNA] (H-[dPip]-[Chg]-Arg-pNA)	0 Nanomol	1,4 Nanomol	10	1,3 Nanomol
N=C(N)NCCC[C@H](NC(=O)[C@H](CC1CCCCC1)NC(=O)[C@H](N)C1CCCCC1)C(=O)Nc1ccc([N+](=O)[O-])cc1 [Beispiel 1, H-D-CHG-CHA-Arg-pNA.2HBr] (H-[dChg]-[Cha]-Arg-pNA)	0,84 Nanomol	12,9 Nanomol	699	8,27 Nanomol
CC(C)[C@@H](N)C(=O)N[C@@H](CC1CCC(O)CC1)C(=O)N[C@@H](CCCCN)C(=O)Nc1ccc([N+](=O)[O-])cc1 (stereo partly drawn) [Beispiel 34, 2AcOH.H-D-Val-CHT-Lys-pNA]	1,40 Nanomol	16,5 Nanomol	532	0,4 Nanomol
N=C(N)NCCC[C@H](NC(=O)[C@@H](NC(=O)[C@H](N)CC1CCCCC1)c1ccccc1)C(=O)Nc1ccc([N+](=O)[O-])cc1 [Beispiel 56, 2HBr.H-D-CHA-Ph'Gly-Arg-pNA] (H-[dCha]-[Phg]-Arg-pNA)	0,64 Nanomol	29,4 Nanomol	559	120,2 Nanomol
NCCCC[C@H](NC(=O)[C@H](CC1CCC(O)CC1)NC(=O)[C@H](N)c1ccccc1)C(=O)Nc1ccc([N+](=O)[O-])cc1 (stereo partly drawn) [Beispiel 35, 2AcOH.H-D-Ph'Gly-CHT-Lys-pNA]	0,10 Nanomol	0,9 Nanomol	894	0,5 Nanomol
N=C(N)NCCC[C@H](NC(=O)[C@@H](NC(=O)[C@H](N)CC1CCC(O)CC1)c1ccccc1)C(=O)Nc1ccc([N+](=O)[O-])cc1 (stereo partly drawn) [Beispiel 57, 2HBr.H-D-CHT-Ph'Gly-Arg-pNA]	0,45 Nanomol	31,1 Nanomol	591	112,1 Nanomol
N=C(N)NCCC[C@H](NC(=O)[C@@H]1CCCN1C(=O)[C@H](N)CC1CCCCC1)C(=O)Nc1ccc([N+](=O)[O-])cc1 [Beispiel 19, 2HBr.H-D-CHA-Pro-Arg-pNA] (H-[dCha]-Pro-Arg-pNA)	1,40 Nanomol	8,1 Nanomol	1200	54,4 Nanomol
CC(C)[C@@H](N)C(=O)N[C@@H](CC1CCCCC1)C(=O)N[C@@H](CCCCN)C(=O)Nc1ccc([N+](=O)[O-])cc1 [Beispiel 14, 2HBr.H-D-Val-CHA-Lys-pNA] (H-[dV]-[Cha]-Lys-pNA)	1,02 Nanomol	6,7 Nanomol	505	0,35 Nanomol
CC[C@@H](C)[C@@H](N)C(=O)N[C@@H](CC1CCCCC1)C(=O)N[C@@H](CCCCN)C(=O)Nc1ccc([N+](=O)[O-])cc1 [Beispiel 15, 2HBr.H-D-Ile-CHA-Lys-pNA] (H-[dI]-[Cha]-Lys-pNA)	2,50 Nanomol	23,1 Nanomol	440	0,39 Nanomol
CC(C)C[C@H](NC(=O)[C@H](N)C1CCCCC1)C(=O)N[C@@H](CCCNC(=N)N)C(=O)Nc1ccc([N+](=O)[O-])cc1 [Beispiel 11, 2HBr.H-D-CHG-Leu-Arg-pNA] (H-[dChg]-Leu-Arg-pNA)	0,60 Nanomol	11,6 Nanomol	381	33,9 Nanomol
